Source: ChEMBL document CHEMBL6114998, “Design, Synthesis, and Pharmacological Evaluation of Quinazoline and Quinoline Derivatives as Potent ENPP1 Inhibitors for Cancer Immunotherapy” (J Med Chem, 2025)
Activity calls are given as the source filed them. The rule behind the calls is not given here.

Columns and labels:
[1] = molecular target: T1, Ectonucleotide pyrophosphatase/phosphodiesterase family member 1 (Homo sapiens, UniProt P22413); test: Inhibition of recombinant human ENPP1 transfected in HEK293T cells using cGAMP as substrate at pH 7.5 measured after 3.5 hrs by luminescence based AMP-glo assay; assay type: cell-based
T1 sequence (P22413 whole entry): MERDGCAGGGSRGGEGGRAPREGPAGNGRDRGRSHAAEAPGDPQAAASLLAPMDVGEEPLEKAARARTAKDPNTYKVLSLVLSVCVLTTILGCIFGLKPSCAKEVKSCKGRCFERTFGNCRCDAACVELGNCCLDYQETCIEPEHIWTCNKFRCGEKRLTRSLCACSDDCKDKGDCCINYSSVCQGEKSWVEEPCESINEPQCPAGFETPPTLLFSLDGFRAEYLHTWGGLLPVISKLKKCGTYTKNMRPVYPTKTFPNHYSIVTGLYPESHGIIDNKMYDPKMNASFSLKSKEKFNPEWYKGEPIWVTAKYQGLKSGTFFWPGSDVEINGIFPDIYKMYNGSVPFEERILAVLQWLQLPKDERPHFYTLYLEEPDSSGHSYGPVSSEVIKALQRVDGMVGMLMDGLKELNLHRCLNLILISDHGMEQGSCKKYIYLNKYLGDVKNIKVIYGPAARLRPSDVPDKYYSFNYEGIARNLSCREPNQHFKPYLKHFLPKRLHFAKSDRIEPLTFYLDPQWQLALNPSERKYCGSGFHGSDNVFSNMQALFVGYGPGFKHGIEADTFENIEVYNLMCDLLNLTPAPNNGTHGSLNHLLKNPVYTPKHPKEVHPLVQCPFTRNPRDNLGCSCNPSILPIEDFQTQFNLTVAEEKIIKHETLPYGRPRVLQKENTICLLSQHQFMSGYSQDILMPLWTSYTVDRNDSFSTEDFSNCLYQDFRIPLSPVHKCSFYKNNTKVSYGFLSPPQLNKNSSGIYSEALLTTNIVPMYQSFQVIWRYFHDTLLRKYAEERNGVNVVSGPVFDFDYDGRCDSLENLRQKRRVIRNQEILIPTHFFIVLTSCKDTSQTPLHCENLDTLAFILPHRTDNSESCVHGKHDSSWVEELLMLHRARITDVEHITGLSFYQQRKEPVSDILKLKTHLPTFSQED

[2] = molecular target: T1, Ectonucleotide pyrophosphatase/phosphodiesterase family member 1; test: Inhibition of ENPP1 in human MDA-MB-231 cells using p-NPh-5TMP as substrate at pH 9.5 measured after 60 mins; assay type: cell-based
THP-1 = test: Activation of STING signalling pathway in human THP-1 cells assessed as increase in IFNB1 expression at 10 to 1000 nM measured after 18 hrs in presence of cGAMP by qPCR analysis; assay type: cell-based; conditions: filed as activator, dose 10-1000 nM
[3] = Cmax in Sprague-Dawley rat at 10 mg/kg, iv measured upto 24 hrs by LC-MS/MS analysis; assay type: ADME, organism-based; conditions: in vivo
[4] = molecular target: T1, Ectonucleotide pyrophosphatase/phosphodiesterase family member 1; test: Inhibition of ENPP1 in human MDA-MB-231 cells using p-NPh-5TMP as substrate at pH 8.5 measured after 60 mins; assay type: cell-based
[5] = Half life in Sprague-Dawley rat at 10 mg/kg, iv measured upto 24 hrs by LC-MS/MS analysis; assay type: ADME, organism-based; conditions: in vivo
[6] = AUC(0 to t) in Sprague-Dawley rat at 10 mg/kg, iv measured upto 24 hrs by LC-MS/MS analysis; assay type: ADME, organism-based; conditions: in vivo
[7] = Clearance in Sprague-Dawley rat at 10 mg/kg, iv measured upto 24 hrs by LC-MS/MS analysis; assay type: ADME, organism-based; conditions: in vivo
[8] = MRT (0 to t) in Sprague-Dawley rat at 10 mg/kg, iv measured upto 24 hrs by LC-MS/MS analysis; assay type: ADME, organism-based; conditions: in vivo
[9] = Apparent permeability across apical to basal side in human Caco-2 cells at 10 uM by LC-MS/MS analysis; assay type: ADME, cell-based
[10] = Apparent permeability across basal to apical side in human Caco-2 cells at 10 uM by LC-MS/MS analysis; assay type: ADME, cell-based
[11] = Efflux ratio of apparent permeability from basolateral to apical side over apical to basolateral side in human Caco-2 cells at 10 uM by LC-MS/MS analysis; assay type: ADME, cell-based
THP1-Dual [12] = test: (§1) Activation of STING-mediated immune response in human THP1-Dual cells assessed as increase in cGAMP-induced ISRE activation preincubated in conditioned medium containing 36 hrs compound treated with human MDA-MB-231 cells measured after 24 hrs by quanti-luc luciferase assay; assay type: cell-based; conditions: filed as activator, time 60.0 hrs
THP1-Dual KO-STING [13] = test: Activation of STING-mediated immune response in human THP1-Dual KO-STING cells assessed as cGAMP-induced ISRE activation at 1 uM preincubated with conditioned medium containing 36 hrs compound treated with human MDA-MB-231 cells and measured after 24 hrs by quanti-luc luciferase assay; assay type: cell-based; conditions: filed as activator, time 60.0 hrs
THP1-Dual KO-STING [14] = test: Cytotoxicity against human THP1-Dual KO-STING cells assessed as effect on cell viability at 1 uM followed by addition of conditioned medium containing 36 hrs compound pretreated human MDA-MB-231 cells measured after 24 hrs by celltiter-glo assay; assay type: functional, cell-based; conditions: time 60.0 hrs
THP1-Dual [15] = test: Cytotoxicity against human THP1-Dual cells assessed as effect on cell viability at 10 to 1000 nM pretreated with compound in serum-free medium for 36 hrs in presence of cGAMP followed by replacement with condition medium and measured after 24 hrs by celltiter-glo assay; assay type: functional, cell-based; conditions: dose 10-1000 nM, time 60.0 hrs
[16] = molecular target: T1, Ectonucleotide pyrophosphatase/phosphodiesterase family member 1; test: Binding affinity to human ENPP1 assessed as inhibition constant
[17] = molecular target: Voltage-gated inwardly rectifying potassium channel KCNH2 (Homo sapiens, UniProt Q12809); test: Inhibition of hERG expressed in CHO cells by QPatch automated patch-clamp assay; assay type: toxicity, cell-based
CT26 = test: Antitumor activity against mouse CT26 cells allografted in female BALB/c mouse assessed as tumor growth inhibition at 200 mg/kg QD, po measured every 2 days for 12 days relative to control; assay type: functional; conditions: CT26, 288 h, time 12 day, read-out: TGI
[18] = Toxicity in female BALB/c mouse allografted with mouse CT26 cells assessed as change in body weight at 200 mg/kg QD, po measured every 2 days for 12 days; assay type: organism-based; conditions: in vivo, 288 h, time 12 day
THP1-Dual [19] = test: as §1, with “activation by measuring type 1 IFN response at 10 to 1000 nM” for “activation”; assay type: cell-based; conditions: filed as activator, dose 10-1000 nM, time 60.0 hrs

Sequence of Voltage-gated inwardly rectifying potassium channel KCNH2 (Q12809 whole entry): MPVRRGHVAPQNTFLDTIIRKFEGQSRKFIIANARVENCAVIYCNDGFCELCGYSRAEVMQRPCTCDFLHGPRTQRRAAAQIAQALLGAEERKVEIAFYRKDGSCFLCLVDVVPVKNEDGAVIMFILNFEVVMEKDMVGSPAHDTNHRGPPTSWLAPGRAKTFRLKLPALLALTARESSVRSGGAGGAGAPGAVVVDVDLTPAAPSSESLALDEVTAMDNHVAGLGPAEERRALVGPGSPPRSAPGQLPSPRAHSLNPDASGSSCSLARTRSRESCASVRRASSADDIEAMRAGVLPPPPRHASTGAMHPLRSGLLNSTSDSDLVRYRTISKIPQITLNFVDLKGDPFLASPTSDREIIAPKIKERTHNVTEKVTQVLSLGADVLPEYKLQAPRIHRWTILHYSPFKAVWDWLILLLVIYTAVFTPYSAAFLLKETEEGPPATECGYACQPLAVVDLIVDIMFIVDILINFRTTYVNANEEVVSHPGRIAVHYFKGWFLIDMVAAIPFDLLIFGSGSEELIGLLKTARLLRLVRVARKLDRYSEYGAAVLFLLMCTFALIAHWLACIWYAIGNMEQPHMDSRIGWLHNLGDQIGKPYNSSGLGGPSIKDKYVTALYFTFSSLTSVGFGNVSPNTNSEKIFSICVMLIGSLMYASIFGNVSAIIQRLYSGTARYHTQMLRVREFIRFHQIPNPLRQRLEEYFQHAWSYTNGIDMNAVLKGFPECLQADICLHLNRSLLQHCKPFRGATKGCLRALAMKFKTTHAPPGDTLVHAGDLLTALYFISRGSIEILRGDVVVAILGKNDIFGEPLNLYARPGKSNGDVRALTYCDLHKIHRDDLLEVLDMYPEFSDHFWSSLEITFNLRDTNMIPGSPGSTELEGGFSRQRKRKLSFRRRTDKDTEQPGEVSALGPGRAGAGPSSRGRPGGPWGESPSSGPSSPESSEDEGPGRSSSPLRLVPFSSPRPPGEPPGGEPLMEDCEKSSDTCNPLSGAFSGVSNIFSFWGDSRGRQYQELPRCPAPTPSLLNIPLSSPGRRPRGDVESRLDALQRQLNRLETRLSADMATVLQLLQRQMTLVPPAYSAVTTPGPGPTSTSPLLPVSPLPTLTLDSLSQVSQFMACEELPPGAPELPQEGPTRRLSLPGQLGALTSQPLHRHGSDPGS

For `COc1cccc2c(N[C@H]3CC[C@@H](NS(N)(=O)=O)CC3)c(C#N)cnc12`, the IC50 [1] was 18 nM and the IC50 [2] was 10.7 nM.

In the case of `COc1cccc2c(N3CCC(O)(CNS(N)(=O)=O)CC3)c(C#N)cnc12`, the IC50 [1] is reported as 11.6 nM, the IC50 [2] is reported as 1.84 nM and the Activity (THP-1) is reported as “Active”.

In the case of `COc1cccc2c(N3CC4CC3CC4CNS(N)(=O)=O)c(C#N)cnc12` (stereo unspecified), the IC50 [1] is reported as 55.5 nM and the IC50 [2] is reported as 23.2 nM.

In the case of `COc1cccc2c(N3CCC(C)(CNS(N)(=O)=O)CC3)ncnc12`, the IC50 [1] is reported as 10.2 nM and the IC50 [2] is reported as 4.41 nM.

Work on `COc1cccc2c(NC3CCC(NS(N)(=O)=O)CC3)ncnc12` (stereo unspecified) yielded an IC50 [1] of 156 nM and an IC50 [2] of over 1000 nM.

Compound `COc1cccc2c(N3CCC4(CC3)CC(NS(N)(=O)=O)C4)c(C#N)cnc12` has an IC50 [1] of 373 nM and an IC50 [2] of over 1000 nM.

`COc1cccc2c(N3CCC(CCP(=O)(O)O)CC3)ncnc12` showed a Cmax [3] of 4800 ng/mL, an IC50 [1] of 0.5 nM and an IC50 [2] of 50.1 nM. For the same compound, the Activity (THP-1) was “Active”, the IC50 [4] was 15 nM and the half-life [5] was 0.878 h. It also gave an AUC(0-t) at 24 h [6] of 1780 ng·h/mL, a clearance [7] of 94 mL/min/kg and an MRT last at 24 h [8] of 0.39 h. The Papp A→B at 10 µM [9] was 0.118 ×10⁻⁶ cm/s, the Papp B→A at 10 µM [10] was 0.394 ×10⁻⁶ cm/s and the efflux ratio at 10 µM [11] was 3.34. The Activity (THP1-Dual [12]) was “Dose-dependent-effect”, the Activity (THP1-Dual KO-STING [13]) was “Active” and the Activity (THP1-Dual KO-STING [14]) was “Active”. For the same compound, the Activity (THP1-Dual [15]) was “Active” and the Ki [16] was under 2 nM.

In the case of `COc1cccc2c(N3CCC4(CC3)CC(NS(N)(=O)=O)C4)ncnc12`, the IC50 [1] is reported as 455 nM and the IC50 [2] is reported as over 1000 nM.

`COc1cccc2c(N[C@H]3CC[C@H](NS(N)(=O)=O)CC3)ncnc12` showed an IC50 [1] of 370 nM and an IC50 [2] of over 1000 nM.

With `COc1cccc2c(N3CCC(F)(CNS(N)(=O)=O)CC3)ncnc12` the IC50 [1] was 14.9 nM and the IC50 [2] was 2.88 nM.

`COc1cccc2c(N3CCC(O)(CCNS(N)(=O)=O)CC3)ncnc12` showed an IC50 [1] of 305 nM and an IC50 [2] of 154 nM.

With `COc1cccc2c(NC34CC(NS(N)(=O)=O)(C3)C4)ncnc12` the IC50 [1] was 95.1 nM and the IC50 [2] was over 1000 nM.

For `COc1cccc2c(NC3CC(NS(N)(=O)=O)C3)c(C#N)cnc12` (stereo unspecified), the IC50 [1] was 53.7 nM and the IC50 [2] was 16.6 nM.

In the case of `COc1cccc2c(N[C@H]3CC[C@@H](NS(N)(=O)=O)CC3)ncnc12`, the IC50 [1] is reported as 27.6 nM and the IC50 [2] is reported as 42 nM.

In the case of `COc1cccc2c(N3CCC(C)(CNS(N)(=O)=O)CC3)c(C#N)cnc12`, the IC50 [1] is reported as 3.84 nM, the IC50 [2] is reported as 1.07 nM and the Activity (THP-1) is reported as “Active”. For the same compound, the IC50 [17] was over 40000 nM.

`COc1cccc2c(NC34CC(NS(N)(=O)=O)(C3)C4)c(C#N)cnc12` showed an IC50 [1] of 6.22 nM and an IC50 [2] of 10.3 nM.

In the case of `Cn1nc(Cc2ccc(NS(N)(=O)=O)cc2)c2ccccc2c1=O`, the Cmax [3] is reported as 11400 ng/mL, the IC50 [1] is reported as 1380 nM and the IC50 [2] is reported as 556 nM. For the same compound, the IC50 [4] was 4560 nM, the half-life [5] was 3.24 h and the AUC(0-t) at 24 h [6] was 27900 ng·h/mL. It also gave a clearance [7] of 6.18 mL/min/kg, an MRT last at 24 h [8] of 2.92 h and a Papp A→B at 10 µM [9] of 6.06 ×10⁻⁶ cm/s. The Papp B→A at 10 µM [10] was 23.2 ×10⁻⁶ cm/s, the efflux ratio at 10 µM [11] was 3.82 and the inhibition in vivo at 200 mg/kg (CT26) was 39.4%. For the same compound, the Activity [18] was “Non-toxic”, the Activity (THP1-Dual [19]) was “Active” and the Activity (THP1-Dual KO-STING [14]) was “Active”. The Activity (THP1-Dual [15]) was “Active”.

Work on `COc1cccc2c(N3CCC4(CC(NS(N)(=O)=O)C4)C3)c(C#N)cnc12` (stereo unspecified) yielded an IC50 [1] of 27.7 nM and an IC50 [2] of 6.78 nM.

With `COc1cccc2c(N3CCC4(CC3)CC4NS(N)(=O)=O)ncnc12` (stereo unspecified) the IC50 [1] was 95.3 nM and the IC50 [2] was over 1000 nM.

In the case of `COc1cccc2c(N3CCC4(CC3)CC4NS(N)(=O)=O)c(C#N)cnc12` (stereo unspecified), the IC50 [1] is reported as 23.7 nM and the IC50 [2] is reported as 6.2 nM.

`COc1cccc2c(N[C@H]3CC[C@H](CNS(N)(=O)=O)CC3)c(C#N)cnc12` gave an IC50 [1] of over 1000 nM and an IC50 [2] of over 1000 nM.

With `COc1cccc2c(N3CCC(C#N)(CNS(N)(=O)=O)CC3)c(C#N)cnc12` the IC50 [1] was 6.65 nM, the IC50 [2] was 0.97 nM and the Activity (THP-1) was “Active”. It also gave an IC50 [17] of over 40000 nM.

`COc1cccc2c(N3CCC4(CC3)CC(NS(N)(=O)=O)CO4)c(C#N)cnc12` (stereo unspecified) showed an IC50 [1] of 572 nM and an IC50 [2] of over 1000 nM.

Compound `COc1cccc2c(N[C@H]3CC[C@H](CNS(N)(=O)=O)CC3)ncnc12` has an IC50 [1] of over 1000 nM and an IC50 [2] of over 1000 nM.

In the case of `COc1cccc2c(N3CCC(F)(CNS(N)(=O)=O)CC3)c(C#N)cnc12`, the IC50 [1] is reported as 3.28 nM, the IC50 [2] is reported as 1.23 nM and the Activity (THP-1) is reported as “Active”.

Work on `COc1cccc2c(NC3CC(NS(N)(=O)=O)C3)ncnc12` (stereo unspecified) yielded an IC50 [1] of 438 nM and an IC50 [2] of over 1000 nM.

Compound `COc1cccc2c(NC3CCC(NS(N)(=O)=O)CC3)c(C#N)cnc12` (stereo unspecified) has an IC50 [1] of 40.3 nM and an IC50 [2] of 8.62 nM.

Compound `COc1cccc2c(N3CCC4(CC(NS(N)(=O)=O)C4)C3)ncnc12` (stereo unspecified) has an IC50 [1] of 14.9 nM and an IC50 [2] of 5.06 nM.
